Test results reported in PMC6539592, “Functional Analysis of Peptidyl-prolyl cis-trans Isomerase from Aspergillus flavus” (International Journal of Molecular Sciences, 2019).

Target: T1, ppci1 (Aspergillus flavus, UniProt B8NRT5)
T1 construct: E. coli BL21(DE3), modified pRSFDuet-1; N-terminal 6xHis tag removed with PreScission protease
Assay: chymotrypsin-coupled PPIase assay, absorbance at […] nm
Assay type: biochemical
Conditions: 15 °C, HEPES pH 8.0; substrate succinyl-AAPF-p-nitroanilide; figure labels traces FK506-CsA and FK506-Rap, possibly combined

T1 sequence (B8NRT5 1-122): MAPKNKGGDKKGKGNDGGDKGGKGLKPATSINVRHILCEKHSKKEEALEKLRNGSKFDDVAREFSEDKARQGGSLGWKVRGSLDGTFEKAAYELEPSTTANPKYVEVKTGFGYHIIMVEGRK

Row | Structure (SMILES) | inhibition
1 | CO[C@H]1C[C@@H]2CC[C@@H](C)[C@@](O)(O2)C(=O)C(=O)N2CCCC[C@H]2C(=O)O[C@H]([C@H](C)C[C@@H]2CC[C@@H](O)[C@H](OC)C2)CC(=O)[C@H](C)/C=C(\C)[C@@H](O)[C@@H](OC)C(=O)[C@H](C)C[C@H](C)/C=C/C=C/C=C/1C [Rap, Rapamycin] | We found that FK506, CsA and Rapamycin inhibit the protein activity of ppci1
2 | C=CC[C@@H]1/C=C(\C)C[C@H](C)C[C@H](OC)[C@H]2O[C@@](O)(C(=O)C(=O)N3CCCC[C@H]3C(=O)O[C@H](/C(C)=C/[C@@H]3CC[C@@H](O)[C@H](OC)C3)[C@H](C)[C@@H](O)CC1=O)[C@H](C)C[C@@H]2OC [FK506, Tacrolimus] | activity of ppci1 was inhibited by these aforementioned drugs with constantly decreased absorption
